Measurements published in ChEMBL document CHEMBL4265967, “Design, synthesis, and evaluation of carboxyl-modified oseltamivir derivatives with improved lipophilicity as neuraminidase inhibitors” (Bioorg Med Chem Lett, 2018).

Tests used:
[1] = biological target: Neuraminidase (Influenza A virus, UniProt B4URF0); parameters: species or system A/Anhui/2005(H5N1)
[2] = biological target: Neuraminidase (Influenza A virus) (UniProt B4URF0); settings: A/Anhui/2005(H5N1), at 1 µM
[3] = biological target: Neuraminidase (Influenza A virus) (UniProt B4URF0); settings: A/Anhui/2005(H5N1), at 10 µM
[4] = in vitro; settings: human, liver microsomes
[5] = in vitro; settings: human, liver microsomes; remark: listed apart in the source
[6] = Octanol-phosphate buffered saline partition coefficient, log D of compound at pH 6.8 at 1 mg after 24 hrs by HPLC analysis; format: physicochemical
[7] = Octanol-phosphate buffered saline partition coefficient, log D of compound at pH 7 at 1 mg after 24 hrs by HPLC analysis; format: physicochemical
[8] = Octanol-phosphate buffered saline partition coefficient, log D of compound at pH 7.4 at 1 mg after 24 hrs by HPLC analysis; format: physicochemical
[9] = Octanol-phosphate buffered saline partition coefficient, log D of compound at pH 7.6 at 1 mg after 24 hrs by HPLC analysis; format: physicochemical
[10] = in vitro; settings: human, liver microsomes; remark: listed apart in the source
[11] = in vitro; settings: human, liver microsomes; remark: listed apart in the source
[12] = in vitro; settings: human, liver microsomes; remark: listed apart in the source
[13] = in vitro; settings: human, liver microsomes; remark: listed apart in the source
[14] = in vitro; settings: human, liver microsomes; remark: listed apart in the source
[15] = in vitro; settings: human, liver microsomes; remark: listed apart in the source

Neuraminidase, sequence (B4URF0 whole entry): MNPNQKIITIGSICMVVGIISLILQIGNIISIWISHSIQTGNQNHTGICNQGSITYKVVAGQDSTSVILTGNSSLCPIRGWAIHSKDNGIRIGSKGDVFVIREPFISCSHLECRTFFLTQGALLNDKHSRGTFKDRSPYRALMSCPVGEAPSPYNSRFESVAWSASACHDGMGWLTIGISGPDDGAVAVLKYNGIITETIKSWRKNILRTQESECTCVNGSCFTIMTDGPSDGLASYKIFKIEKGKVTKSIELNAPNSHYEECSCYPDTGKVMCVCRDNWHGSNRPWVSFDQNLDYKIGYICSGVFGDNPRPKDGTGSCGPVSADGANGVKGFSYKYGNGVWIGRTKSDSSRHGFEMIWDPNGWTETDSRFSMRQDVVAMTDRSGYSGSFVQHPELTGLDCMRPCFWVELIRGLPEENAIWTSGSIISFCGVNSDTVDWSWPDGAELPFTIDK
Neuraminidase (Influenza A virus), sequence (B4URF0 as listed by the source): as the sequence (B4URF0 whole entry) above

Compound	IC50 [1] [µM]	inhibition [2] [%]	inhibition [3] [%]	also measured
CCC(CC)O[C@@H]1C=C(C(=O)N[C@H](CC(C)C)C(=O)O)C[C@H](N)[C@H]1NC(C)=O	6.55	38.9	84.4	
CCC(CC)O[C@@H]1C=C(C(=O)N[C@H](Cc2ccccc2)C(=O)OC)C[C@H](N)[C@H]1NC(C)=O		24.9	63.2	
CCC(CC)O[C@@H]1C=C(C(=O)N[C@H](C)C(=O)O)C[C@H](N)[C@H]1NC(C)=O	24.4	27.8	81.1	
O=C(O)Cc1ccccc1Nc1c(Cl)cccc1Cl [DICLOFENAC]				half-life at 1 µM [4]: 11.6 min; CLint scaled at 1 µM [5]: 108 mL/min/kg; microsomal CLint at 1 µM [5]: 120 µL/min/mg
CCC(CC)O[C@@H]1C=C(C(=O)NCc2ccc(Cl)c(Cl)c2)C[C@H](N)[C@H]1NC(C)=O			21.4	
CCC(CC)O[C@@H]1C=C(C(=O)N[C@@H](C(=O)O)C(C)(C)C)C[C@H](N)[C@H]1NC(C)=O	1.3	58.3	91	logD at 24 h [6]: -0.0458; logD at 24 h [7]: -0.167; logD at 24 h [8]: -0.116; logD at 24 h [9]: -0.209; half-life at 1 µM [4]: > 145 min; remaining at 1 h, 1 µM [10]: 84.1%; remaining at 0.5 h, 1 µM [11]: 95.5%; remaining at 20 min, 1 µM [12]: 106%; remaining at 10 min, 1 µM [13]: 87.3%; remaining at 5 min, 1 µM [14]: 111%; remaining at 1 h, 1 µM [15]: 92.9%; CLint scaled at 1 µM [5]: < 8.6 mL/min/kg; microsomal CLint at 1 µM [5]: < 9.6 µL/min/mg
C[C@]12CC[C@H]3[C@@H](CCC4=CC(=O)CC[C@@]43C)[C@@H]1CC[C@@H]2O [TESTOSTERONE]				remaining at 1 h, 1 µM [10]: 5.2%; remaining at 0.5 h, 1 µM [11]: 21.5%; remaining at 20 min, 1 µM [12]: 37.8%; remaining at 10 min, 1 µM [13]: 58.9%; remaining at 5 min, 1 µM [14]: 64.8%; remaining at 1 h, 1 µM [15]: 99.3%
CCCC[C@@H](NC(=O)C1=C[C@@H](OC(CC)CC)[C@H](NC(C)=O)[C@@H](N)C1)C(=O)O	30.7		85.5	
CCC(CC)O[C@@H]1C=C(C(=O)N[C@@H](CC(=O)OC)c2ccccc2)C[C@H](N)[C@H]1NC(C)=O		26.5	56.7	
CCC(CC)O[C@@H]1C=C(C(=O)NCCCc2ccccc2)C[C@H](N)[C@H]1NC(C)=O		13.5	19.3	
CCC(CC)O[C@@H]1C=C(C(=O)N[C@@H](C(=O)O)C(C)C)C[C@H](N)[C@H]1NC(C)=O	4.18	57.6	91.4	
CCC(CC)O[C@@H]1C=C(C(=O)NC2CC2)C[C@H](N)[C@H]1NC(C)=O		5	55.3	
CCC(CC)O[C@@H]1C=C(C(=O)N[C@H](Cc2ccccc2)C(=O)O)C[C@H](N)[C@H]1NC(C)=O	21.9	21.1	80.4	
CCC(CC)O[C@@H]1C=C(C(=O)N[C@@H](C(=O)O)c2ccccc2)C[C@H](N)[C@H]1NC(C)=O			8.3	
CCC(CC)O[C@@H]1C=C(C(=O)N[C@H](CC(C)C)C(=O)OC)C[C@H](N)[C@H]1NC(C)=O		13.1	41.7	
CCC(C)C[C@@H](NC(=O)C1=C[C@@H](OC(CC)CC)[C@H](NC(C)=O)[C@@H](N)C1)C(=O)OC (some centres not stated)		23.6	50.5	
CCC(CC)O[C@@H]1C=C(C(=O)N[C@@H](C(=O)O)C2CC2)C[C@H](N)[C@H]1NC(C)=O	46.4		85.7	
CCC(CC)O[C@@H]1C=C(C(=O)NCCCCc2ccccc2)C[C@H](N)[C@H]1NC(C)=O		24.7	29.6	
